ChEMBL document CHEMBL1148275, “Discovery of thiophene-2-carboxylic acids as potent inhibitors of HCV NS5B polymerase and HCV subgenomic RNA replication. Part 1: Sulfonamides” (Bioorg Med Chem Lett, 2004)
pIC50: −log10 of the molar value.

Experiments:
[1] = target: Genome polyprotein (Hepatitis C virus genotype 1a (isolate 1) (HCV), UniProt P26664); assay: Inhibition of HCV NS5B polymerase
[2] = test system: Huh-7; assay: Inhibitory concentration against Huh-7 human hepatoma cell line that supports replication of subgenomic HCV RNA replicons (replicon cell line); format: functional, cell-based
[3] = test system: Huh-7; assay: Concentration required to suppress [3H]thymidine uptake by 50% in Huh-7 cells; format: functional; details: Homo sapiens

Chain of Genome polyprotein (P26664 2421-3011 limits assumed): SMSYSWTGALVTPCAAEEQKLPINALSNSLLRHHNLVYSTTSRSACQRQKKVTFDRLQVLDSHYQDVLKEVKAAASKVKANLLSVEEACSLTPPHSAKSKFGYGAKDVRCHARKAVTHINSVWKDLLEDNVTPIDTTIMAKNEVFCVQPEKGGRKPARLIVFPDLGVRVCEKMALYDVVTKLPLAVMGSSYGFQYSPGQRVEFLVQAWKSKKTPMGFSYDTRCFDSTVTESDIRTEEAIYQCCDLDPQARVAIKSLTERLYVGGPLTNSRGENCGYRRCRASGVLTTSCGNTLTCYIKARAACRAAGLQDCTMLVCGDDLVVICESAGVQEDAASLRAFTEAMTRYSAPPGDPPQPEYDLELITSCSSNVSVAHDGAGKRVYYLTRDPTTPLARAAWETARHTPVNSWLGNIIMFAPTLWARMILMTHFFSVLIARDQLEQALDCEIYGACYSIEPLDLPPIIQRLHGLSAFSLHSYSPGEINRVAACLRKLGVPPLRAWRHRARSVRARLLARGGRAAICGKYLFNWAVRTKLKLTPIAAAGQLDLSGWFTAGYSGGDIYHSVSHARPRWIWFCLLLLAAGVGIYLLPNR

| SMILES | pIC50 [1] | pIC50 [2] | CC50 [3] |
| --- | --- | --- | --- |
| Cc1ccccc1C(=O)Nc1cc(-c2ccccc2)sc1C(=O)O | 4.85 | – | – |
| Cc1cc(S(=O)(=O)Nc2cc(-c3ccccc3)sc2C(N)=O)c(C)cc1Cl | 4.85 | – | – |
| Cc1cc(S(=O)(=O)Nc2cc(-c3ccccc3)sc2C(=O)O)c(C)cc1Cl | 5.27 | 4.85 | 80 µM |
| Cc1ccc(C(=O)Nc2cc(-c3ccccc3)sc2C(=O)O)cc1 | 4.92 | – | – |
| Cc1ccc(S(=O)(=O)Nc2cc(-c3ccccc3)sc2C(=O)O)c(C)c1 | 6.00 | – | 57 µM |
| Cc1ccccc1S(=O)(=O)Nc1cc(-c2ccc(S(C)(=O)=O)cc2)sc1C(=O)O | 5.74 | < 4.00 | > 200 µM |
| CC(=O)c1ccc(-c2cc(NS(=O)(=O)c3ccc(C)cc3C)c(C(=O)O)s2)cc1 | 6.41 | 5.10 | 100 µM |
| Cc1ccc(S(=O)(=O)Nc2cc(-c3ccccc3)sc2C(=O)O)cc1 | 5.34 | 4.48 | 79 µM |
| Cc1ccc(C)c(S(=O)(=O)Nc2cc(-c3ccccc3)sc2C(=O)O)c1 | 4.89 | 4.96 | 24 µM |
| O=C(O)C(Cc1ccccc1)N(Cc1cccc(C(F)(F)F)c1)C(=O)c1ccc(Cl)cc1Cl (stereo not given) | 5.74 | – | – |
| Cc1cccc(S(=O)(=O)Nc2cc(-c3ccccc3)sc2C(=O)O)c1 | 5.13 | 4.00 | 112 µM |
| O=C(O)c1sc(-c2ccccc2)cc1NS(=O)(=O)c1ccc(Cl)cc1 | 5.39 | 4.11 | 92 µM |
| Cc1cc(Cl)ccc1S(=O)(=O)Nc1cc(-c2ccccc2)sc1C(=O)O | 6.12 | 4.89 | 54 µM |
| Cc1ccccc1S(=O)(=O)Nc1sc(-c2ccccc2)cc1C(=O)O | 4.70 | – | – |
| Cc1ccccc1S(=O)(=O)Nc1cc(C(=O)O)sc1-c1ccccc1 | < 4.30 | – | – |
| Cc1ccccc1S(=O)(=O)Nc1cc(-c2ccccc2)sc1C(=O)O | 5.28 | 4.62 | 76 µM |
| O=C(Nc1ccc(Cl)cc1)Nc1cc(-c2ccccc2)sc1C(=O)O | < 4.30 | – | – |
| CC(=O)c1ccc(-c2cc(NS(=O)(=O)c3ccccc3C)c(C(=O)O)s2)cc1 | 5.85 | 4.92 | 147 µM |
| O=C(Nc1cc(-c2ccccc2)sc1C(=O)O)Oc1ccc(Cl)cc1 | 4.89 | – | – |
